No end group written: not given here.
What was measured:
[1] = system: Ang II peptide; assay: peptide based ELISA of sera from vaccinated mice: binding capacity/titers against the Ang II peptide; type: in vivo; conditions: BALB/c mice, peptide-KLH, Alum; for reactivity/titer of induced sera against Ang II: ELISA titer ODmax/2, compared with sera evoked by Ang II peptide (set as 100%)
Experimental: (§1) In each Figure, on the X-axis sera derived from animals immunized with indicated peptides are listed. On the Y-axis relative titers of induced sera are shown. Titers derived from Ang II treated animals were set as 100%. Titers were calculated as the sera dilution giving half-maximal binding (i.e. ODmax/2). White bars indicate titers against the peptides that were used for vaccination while black bars represent titers against the Ang II peptide.
Therefore, in a first set of experiments each position in the Ang II sequence was systematically replaced by amino acids having similar or different features (see Table 1 for position 2). Subsequently all these peptides were chemically linked via an additional N-terminal cysteine to the protein carrier keyhole limpet haemocyanin (KLH) and administrated to mice (BALB/c) together with Alum as adjuvant. Sera from vaccinated mice were used to analyze the immunogenicity of indicated peptides. For this purpose a peptide based ELISA assay was used to define sera titers against the injected peptide (i.e. Ang II peptide variants, VARIOTOPEs) as well as to define the binding capacity of the obtained sera against the Ang II peptide.
as §1, with “the Figures (FIGS. 1 to 8 for position 1 to position 8) the results derived from these experiments are shown. On” for “each Figure, on”
(§2) All peptides listed in Table 2 were again chemically linked via the N-terminus to KLH adsorbed to Alum and injected s.c. into experimental animals (BALB/c mice). Sera were analyzed by ELISA and antibody responses induced by the peptide variants were compared to that one induced by the original peptide.

[2] = system: injected peptide (Ang II peptide variants, VARIOTOPEs); assay: peptide based ELISA of sera from vaccinated mice: titers against the injected peptide; type: in vivo; conditions: BALB/c mice, peptide linked via N-terminal cysteine to KLH, Alum; ELISA titer ODmax/2, compared with Ang II treated animals (set as 100%)
Experimental: as §1
Therefore, in a first set of experiments each position in the Ang II sequence was systematically replaced by amino acids having similar or different features (see Table 1 for position 2). Subsequently all these peptides were chemically linked via an additional N-terminal cysteine to the protein carrier keyhole limpet haemocyanin (KLH) and administrated to mice (BALB/c) together with Alum as adjuvant. […]
In the Figures (FIGS. 1 to 8 for position 1 to position 8) the results derived from these experiments are shown. […] Titers were calculated as the sera dilution giving half-maximal binding (i.e. ODmax/2). […]
as §2

[3] = % of the activity of Ang II; cited from earlier work

Row | Substance | reactivity/titer of induced sera against Ang II [1] | further results
1 | C-DRVYAAPF (CDRVYAAPF; also: C-terminal modification) | diminished reactivity | –
2 | C-DAVYIAPF (CDAVYIAPF; also: C-terminal modification) | diminished reactivity | –
3 | C-DRVYIHAA (CDRVYIHAA; also: C-terminal modification) | diminished reactivity | –
4 | peptide variant with G on position 1: Ang II peptide CDRVYIHPF with G on position 1, KLH-linked; compare GRVYIHPF (SEQ ID NO:6) | – | increase of reactivity against Ang II ([1]; versus sera of Ang II treated animals): ~50%; sera titer against the injected peptide [2]: almost twice as high
5 | Ang IV | – | activity relative to Ang II [3]: approximately 40%
6 | C-DRAAAHAF (CDRAAAHAF; also: C-terminal modification) | diminished reactivity | –
7 | C-DAVYIAAF (CDAVYIAAF; also: C-terminal modification) | diminished reactivity | sera titer against the injected peptide [2]: lower compared to the titers induced by the other antigens
8 | C-DAVYIAAA (CDAVYIAAA; also: C-terminal modification) | diminished reactivity | –
